In PubChem BioAssay AID330 (DTP/NCI, 2004):
Where “and” joins values, the source holds several entries; their conditions need not be identical. Identical values can stand only once. Toxic doses and inconclusive results are not listed.

System: P388 leukemia ip, CD2F1 mice, survival T/C
Assay: NCI In Vivo Anticancer Drug Screen. Data for tumor model P388 Leukemia (intraperitoneal) in CD2F1 (CDF1) mice
Conditions: endpoint: median survival time, higher = longer survival
In short: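 Mice carrying the transplanted tumor received test compound or vehicle. Survival was recorded in each group, and the value is the treated-group measurement divided by that of the vehicle-treated control group.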

[1] = dose: 50.0 mg/kg/injection, schedule: Q01DX009 (ip), vehicle: saline with Tween-80
[2] = dose: 100.0 mg/kg/injection, schedule: Q01DX009 (ip), vehicle: saline with Tween-80
[3] = dose: 200.0 mg/kg/injection, schedule: Q01DX009 (ip), vehicle: saline with Tween-80
[4] = dose: 50.0 mg/kg/injection, schedule: Q01DX005 (ip), vehicle: Klucel (hydroxypropylcellulose) (HPC)
[5] = dose: 100.0 mg/kg/injection, schedule: Q01DX005 (ip), vehicle: Klucel (hydroxypropylcellulose) (HPC)
[6] = dose: 200.0 mg/kg/injection, schedule: Q01DX005 (ip), vehicle: Klucel (hydroxypropylcellulose) (HPC)
[7] = dose: 50.0 mg/kg/injection, schedule: Q01DX005 (ip), vehicle: saline with Tween-80
[8] = dose: 100.0 mg/kg/injection, schedule: Q01DX005 (ip), vehicle: saline with Tween-80
[9] = dose: 200.0 mg/kg/injection, schedule: Q01DX005 (ip), vehicle: saline with Tween-80
[10] = dose: 60.0 mg/kg/injection, schedule: Q01DX005 (ip), vehicle: Klucel + Tween-80
[11] = dose: 120.0 mg/kg/injection, schedule: Q01DX005 (ip), vehicle: Klucel + Tween-80
[12] = dose: 60.0 mg/kg/injection, schedule: Q01DX005 (ip), vehicle: saline with Tween-80
[13] = dose: 120.0 mg/kg/injection, schedule: Q01DX005 (ip), vehicle: saline with Tween-80
[14] = dose: 240.0 mg/kg/injection, schedule: Q01DX005 (ip), vehicle: saline with Tween-80
[15] = dose: 12.5 mg/kg/injection, schedule: Q01DX005 (ip), vehicle: Klucel (hydroxypropylcellulose) (HPC)
[16] = dose: 25.0 mg/kg/injection, schedule: Q01DX005 (ip), vehicle: Klucel (hydroxypropylcellulose) (HPC)

NC(=S)c1cccc(C2Nc3ccccc3O2)c1 (stereo unspecified)
T/C [1]: 94 % of control | T/C [2]: 104 % of control | T/C [3]: 104 % of control

O=C(Nc1nc2ccccc2s1)Nc1ccc([N+](=O)[O-])cc1Cl
T/C [4]: 98 % of control | T/C [5]: 94 % of control | T/C [6]: 90 % of control

COc1ncnc2c1ncn2C1CCCCO1 (stereo unspecified)
T/C [7]: 97 % of control | T/C [8]: 101 % of control | T/C [9]: 99 % of control

OC(c1ccccc1)C1(c2ccccc2)CCN(Cc2ccccc2)CC1 (stereo unspecified)
T/C [7]: 100 % of control | T/C [8]: 100 % of control | T/C [9]: 96 % of control

COC(=O)c1nnn(-c2ccc(Cl)cc2C)c1C(=O)c1ccc(OC)cc1
T/C [10]: 102 % of control | T/C [11]: 108 % of control | T/C (dose: 240.0 mg/kg/injection, schedule: Q01DX005 (ip), vehicle: Klucel + Tween-80): 93 % of control

Oc1ccc(O)c([P+](c2ccccc2)(c2ccccc2)c2ccccc2)c1
T/C [1]: 111 % of control | T/C [2]: 115 % of control

O=C1OC(C2OC(=O)C(=O)C2C(=O)c2ccc(Cl)c(Cl)c2)C(C(=O)c2ccc(Cl)c(Cl)c2)C1=O (stereo unspecified)
T/C (dose: 60.0 mg/kg/injection, schedule: Q01DX005 (ip), vehicle: saline): 100 % of control | T/C (dose: 120.0 mg/kg/injection, schedule: Q01DX005 (ip), vehicle: saline): 96 % of control | T/C (dose: 240.0 mg/kg/injection, schedule: Q01DX005 (ip), vehicle: saline): 90 % of control

N#Cc1nc(CC(=O)c2ccccc2Cl)c(CC(=O)c2ccccc2Cl)nc1C#N
T/C [12]: 100 % of control | T/C [13]: 94 % of control | T/C [14]: 114 % of control

CC1(C)OCC(C2OC3OC(C)(C)OC3C2(O)/C(N)=N/O)O1 (stereo unspecified)
T/C (dose: 100.0 mg/kg/injection, schedule: Q04DX002 (ip), vehicle: saline): 103 % of control | T/C (dose: 200.0 mg/kg/injection, schedule: Q04DX002 (ip), vehicle: saline): 112 % of control | T/C (dose: 400.0 mg/kg/injection, schedule: Q04DX002 (ip), vehicle: saline): 122 % of control

c1ccc(-c2cc3cc4c(cc3[nH]2)Sc2ccccc2O4)cc1
T/C (dose: 110.0 mg/kg/injection, schedule: Q01DX001 (ip), vehicle: Klucel (hydroxypropylcellulose) (HPC)): 97 % of control | T/C (dose: 220.0 mg/kg/injection, schedule: Q01DX001 (ip), vehicle: Klucel (hydroxypropylcellulose) (HPC)): 101 % of control | T/C (dose: 440.0 mg/kg/injection, schedule: Q01DX001 (ip), vehicle: Klucel (hydroxypropylcellulose) (HPC)): 99 % of control

CC(C)(Br)C(=O)/C=C/c1ccc(Cl)c(Cl)c1
T/C [12]: 111 % of control | T/C [13]: 118 % of control | T/C [14]: 108 % of control

CCCCN(CCCC)c1ccc(C(=NC(C)CCCN(CC)CC)c2ccc(N(C)C)cc2)cc1 (stereo unspecified)
T/C (dose: 6.25 mg/kg/injection, schedule: Q01DX005 (ip), vehicle: saline with Tween-80): 107 % of control | T/C (dose: 12.5 mg/kg/injection, schedule: Q01DX005 (ip), vehicle: saline with Tween-80): 98 % of control | T/C (dose: 25.0 mg/kg/injection, schedule: Q01DX005 (ip), vehicle: saline with Tween-80): 100 % of control

COc1ccc(C(=O)O[C@@H]2CCN3CC[C@H](C)[C@H]23)cc1
T/C [15]: 102 % of control | T/C [16]: 102 % of control | T/C [4]: 104 % of control

CC12CC(CS(=O)C1)c1ccccc1N2 (stereo unspecified)
T/C (dose: 100.0 mg/kg/injection, schedule: Q04DX002 (ip), vehicle: saline with Tween-80): 97 % of control | T/C (dose: 200.0 mg/kg/injection, schedule: Q04DX002 (ip), vehicle: saline with Tween-80): 101 % of control | T/C (dose: 400.0 mg/kg/injection, schedule: Q04DX002 (ip), vehicle: saline with Tween-80): 100 % of control

CN(C)c1ccc2[nH]c3c(C(=O)O)cc(=O)c(=O)c=3oc2c1
T/C [7]: 108 % of control | T/C [8]: 100 % of control

CCn1c2ccccc2c2cc(N=Nc3ccc(N)c4ccccc34)ccc21
T/C (dose: 100.0 mg/kg/injection, schedule: Q04DX003 (ip), vehicle: Klucel (hydroxypropylcellulose) (HPC)): 97 % of control | T/C (dose: 200.0 mg/kg/injection, schedule: Q04DX003 (ip), vehicle: Klucel (hydroxypropylcellulose) (HPC)): 101 % of control | T/C (dose: 400.0 mg/kg/injection, schedule: Q04DX003 (ip), vehicle: Klucel (hydroxypropylcellulose) (HPC)): 94 % of control

CC(C)c1cc2c(cc1O)C[C@@]1(O)CCCC(C)(C)C1CC2 (stereo partly specified)
T/C (dose: 7.0 mg/kg/injection, schedule: Q01DX005 (ip), vehicle: other): 100 % of control | T/C (dose: 14.0 mg/kg/injection, schedule: Q01DX005 (ip), vehicle: other): 100 % of control | T/C (dose: 28.0 mg/kg/injection, schedule: Q01DX005 (ip), vehicle: other): 104 % of control | T/C (dose: 56.0 mg/kg/injection, schedule: Q01DX005 (ip), vehicle: other): 99 % of control

CCOc1c(N=Nc2ccc(Cl)cc2Cl)c(C)nn1C(=S)SC
T/C [10]: 103 % of control | T/C [11]: 107 % of control

Oc1cc2c(cc1C(Nc1ncccn1)c1ccc3c(c1)OCO3)OCO2 (stereo unspecified)
T/C [12]: 102 % of control | T/C [13]: 100 % of control | T/C [14]: 95 % of control

O=c1[nH]ncc(=S)[nH]1
T/C (dose: 25.0 mg/kg/injection, schedule: Q01DX009 (ip), vehicle: suspension in saline): 90 % of control | T/C (dose: 50.0 mg/kg/injection, schedule: Q01DX009 (ip), vehicle: suspension in saline): 103 % of control | T/C (dose: 100.0 mg/kg/injection, schedule: Q01DX009 (ip), vehicle: suspension in saline): 87 % of control

C[n+]1cccc(C(=S)[S-])c1
T/C (dose: 12.5 mg/kg/injection, schedule: Q01DX009 (ip), vehicle: saline with Tween-80): 100 % of control | T/C (dose: 25.0 mg/kg/injection, schedule: Q01DX009 (ip), vehicle: saline with Tween-80): 95 % of control | T/C [1]: 90 % of control

Cc1c([N+](=O)[O-])ccn1C
T/C [1]: 98 % of control | T/C [2]: 105 % of control | T/C [3]: 97 % of control

CN1C2CCC1C(Br)C(=O)C2 (stereo unspecified)
T/C (dose: 50.0 mg/kg/injection, schedule: Q01DX005 (ip), vehicle: saline): 100 % of control | T/C (dose: 100.0 mg/kg/injection, schedule: Q01DX005 (ip), vehicle: saline): 108 % of control (2×) and 109 % of control | T/C (dose: 200.0 mg/kg/injection, schedule: Q01DX005 (ip), vehicle: saline): 118 % of control

CC(/C=C(\C)N1CCCC1)=[N+]1CCCC1
T/C (dose: 0.12 mg/kg/injection, schedule: Q01DX009 (ip), vehicle: saline): 111 % of control | T/C (dose: 0.25 mg/kg/injection, schedule: Q01DX009 (ip), vehicle: saline): 111 % of control | T/C (dose: 0.5 mg/kg/injection, schedule: Q01DX009 (ip), vehicle: saline): 108 % of control | T/C (dose: 1.0 mg/kg/injection, schedule: Q01DX009 (ip), vehicle: saline): 109 % of control | T/C (dose: 2.0 mg/kg/injection, schedule: Q01DX009 (ip), vehicle: saline): 109 % of control

C/C(=N\NC(=S)NNC(=S)N1CCCc2ccccc21)c1ccccn1
T/C (dose: 100.0 mg/kg/injection, schedule: Q04DX002 (ip), vehicle: Klucel (hydroxypropylcellulose) (HPC)): 113 % of control | T/C (dose: 200.0 mg/kg/injection, schedule: Q04DX002 (ip), vehicle: Klucel (hydroxypropylcellulose) (HPC)): 115 % of control

Cc1c[nH]c2nc(C)n(-c3ccc(Cl)cc3)c(=N)c12
T/C [15]: 98 % of control | T/C [16]: 104 % of control | T/C [4]: 103 % of control

Cc1ccc(NC(=S)NNC(=S)NNc2ccccc2)cc1C
T/C [5]: 95 % of control | T/C [6]: 101 % of control | T/C (dose: 400.0 mg/kg/injection, schedule: Q01DX005 (ip), vehicle: Klucel (hydroxypropylcellulose) (HPC)): 106 % of control

O=C1CN=C(c2ccccc2)N(c2ccccc2)N1
T/C (dose: 60.0 mg/kg/injection, schedule: Q01DX005 (ip), vehicle: Klucel (hydroxypropylcellulose) (HPC)): 107 % of control | T/C (dose: 120.0 mg/kg/injection, schedule: Q01DX005 (ip), vehicle: Klucel (hydroxypropylcellulose) (HPC)): 100 % of control | T/C (dose: 240.0 mg/kg/injection, schedule: Q01DX005 (ip), vehicle: Klucel (hydroxypropylcellulose) (HPC)): 103 % of control

CCN1CC2(C)CCC(OC)C34C1[C@H](C(=O)[C@@H]23)[C@]1(O)CC[C@H]2C[C@H]4[C@H]1C(=O)O2 (stereo partly specified)
T/C (dose: 1.0 mg/kg/injection, schedule: Q01DX009 (ip), vehicle: Klucel (hydroxypropylcellulose) (HPC)): 95 % of control | T/C (dose: 2.0 mg/kg/injection, schedule: Q01DX009 (ip), vehicle: Klucel (hydroxypropylcellulose) (HPC)): 96 % of control | T/C (dose: 4.0 mg/kg/injection, schedule: Q01DX009 (ip), vehicle: Klucel (hydroxypropylcellulose) (HPC)): 98 % of control
